Results reported in patent publication US5221665A, “N-substituted amides” (Boehringer Ingelheim Pharmaceuticals, Inc., priority 1991, dated 1993).
Converted amounts (≈) assume the structure as drawn.

Legend:
[1] = biological target: T1, Human sputum elastase (HSE) / Human Leukocyte Elastase (HLE) (Homo sapiens, UniProt P08246); experiment: Elastase Inhibition--In Vitro Method (hydrolysis of MeO-Suc-Ala-Ala-Pro-Val-pNA, microtiter format); assay type: biochemical; conditions: for % inhib. (5 ug/mL) 0% HSA / % inhib. (5 ug/mL) 0.5% HSA: 5 ug/mL compound; for % inhib. (5 ug/mL) 0.5% HSA: 0.5% HSA added; for IC50: Table I, 0.5 mM substrate, 15 minutes pre-incubation
T1 construct: Human sputum elastase (HSE ) (Elasten Products Co., Pacific, Mo.); purchased Elasten Products Co., Pacific, Mo; host or cells: human sputum
T1 sequence (P08246 30-267): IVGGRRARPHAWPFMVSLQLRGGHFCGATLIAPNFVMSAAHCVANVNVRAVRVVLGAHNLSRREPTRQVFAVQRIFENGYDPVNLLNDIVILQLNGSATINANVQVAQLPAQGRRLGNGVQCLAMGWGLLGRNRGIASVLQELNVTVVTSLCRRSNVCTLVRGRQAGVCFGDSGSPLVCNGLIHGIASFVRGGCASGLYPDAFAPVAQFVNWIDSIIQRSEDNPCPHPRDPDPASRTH

[2] = biological target: T2, human neutrophil elastase (HNE) (Homo sapiens, UniProt P08246); experiment: Elastase Inhibition--Animal Model (acute hamster hemorrhage model, HNE instilled i.t.); assay type: in vivo, Syrian Golden Hamsters; conditions: compound 20 ug i.t. three to five minutes before 50 μg HNE i.t., lung lavage hemorrhage at 18 hours
T2 construct: purified preparations of human neutrophil elastase (HNE); purchased Elastin Products Co., Pacific, MO
T2 sequence (P08246 30-247 limits assumed): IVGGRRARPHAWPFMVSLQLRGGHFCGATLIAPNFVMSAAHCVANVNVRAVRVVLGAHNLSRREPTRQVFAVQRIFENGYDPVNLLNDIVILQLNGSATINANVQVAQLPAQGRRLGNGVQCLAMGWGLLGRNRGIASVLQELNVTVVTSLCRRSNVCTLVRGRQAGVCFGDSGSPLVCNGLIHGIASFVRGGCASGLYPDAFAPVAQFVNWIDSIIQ
Method: When instilled into the lungs of hamsters, purified preparations of human neutrophil elastase (HNE) will produce an emphysema like state. Acute challenge (18 hours) with 50 μg of HNE results in pulmonary hemorrhage which can be readily quantitated by measuring total RBC's (red blood count) and hemogloblin concentration of lung lavage samples.
HNE (obtained from Elastin Products Co., Pacific, MO) was diluted to 250 μg/mL in 0.9% sterile saline. Syrian Golden Hamsters, males, weighing approximately 90-130 grams, were obtained from Charles River Laboratories. The experiments described below are conducted using at least three animals per group.
Anesthesia required for the intratracheal administration of compounds and elastase was induced by the i.p. injection of Ketamine hydrochloride, 10 mg/100 gram body weight plus Xylazine, 1 mg/100 gram body weight.
Hamsters were anesthetized as described above and the trachea were surgically exposed. Test compounds were administered via 27g needle inserted directly into the trachea in 0.1 mL volume followed by 0.1 mL saline push. […]
Samples were concentrated by centrifugation (1500 rpm, 10 minutes) and brought up to 1.0 mL in saline. Homoglobin concentration was determined spectrophotometrically (540 nm) by the cyanmethemoglobin method using 200 μL sample to 2.5 mL cranmethoglobin reagent (Data Medical Associates, Arlington, Tx.).

| SMILES | % inhib. (5 ug/mL) 0% HSA [1] [%] | % inhib. (5 ug/mL) 0.5% HSA [1] [%] | IC50 [1] [µg/mL] | % inhib. (20 ug, i.t.) [2] [%] |
| --- | --- | --- | --- | --- |
| COc1ccc(CCN(CC(=O)NC(C(=O)C(F)(F)F)C(C)C)C(=O)[C@@H](NC(=O)OCc2ccccc2)C(C)C)cc1OC (some centres unmarked) [3,4-Dimethoxyphenethyl; CBZ] | 95.1 | 87.8 | 0.432 (≈ 0.693 µM) |  |
| CC(C)C(NC(=O)CN(C(=O)[C@@H](NC(=O)OCc1ccccc1)C(C)C)C1CCCC1)C(=O)C(F)(F)F (some centres unmarked) [Cyclopentyl; CBZ] | 100 | 99.4 | 0.082 (≈ 0.155 µM) |  |
| CC(C)C(NC(=O)CN(C(=O)[C@@H](NC(=O)c1ccc(C(=O)NS(=O)(=O)c2ccc(Cl)cc2)cc1)C(C)C)C1CC2CCC1C2)C(=O)C(F)(F)F (stereo partly drawn) [[[4-(4-Chlorophenyl)sulfonylaminocarbonyl]phenyl-1-oxomethyl]-L-Valyl-N-(exo-bicyclo[2,2,1]hept-2-yl)-glycyl-N-[3-(1,1,1-trifluoro-4-methyl-2-oxypentyl)] amide.] | 99.8 | 99.5 | 0.045 (≈ 0.0607 µM) | 93.8 |
| COc1ccc(CCN(CC(=O)NC(C(=O)C(F)(F)F)C(C)C)C(=O)[C@@H](NC(=O)c2ccc(C(=O)NS(=O)(=O)c3ccc(Cl)cc3)cc2)C(C)C)cc1OC (stereo partly drawn) [[[4-(4-Chlorophenylsulfonylaminocarbonyl]phenyl-1-oxomethyl]-L-Valyl-N-2-(3 , 4-dimethoxy)phenethyl] glycyl-N-[3-(1,1,1-trifluoro-4-methyl-2-oxypentyl)] amide] | 98.8 | 96.3 | 0.0838 (≈ 0.103 µM) | 90.2 |
